Data on nine compounds can be found in PubChem BioAssay (NCI).

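48-hour exposure; five concentrations; linearly interpolated endpoints. At the GI50, growth is halved. TGI denotes the concentration required for complete inhibition of growth.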

Test systems include CCRF-CEM leukemia; HCT-116 colon; HCT-15 colon; M14 melanoma; MALME-3M melanoma; NCI-H460 lung; RXF 393 renal; SK-MEL-28 melanoma; SNB-75 CNS; UACC-62 melanoma.
Common to all, as to experiment: NCI-60 cell line screen, 48 h

As to `Cc1cccc(C(=O)c2cccc3ccccc23)c1C(=O)O`, the TGI with CCRF-CEM leukemia, with HCT-116 colon, in the experiment on HCT-15 colon, with M14 melanoma, with MALME-3M melanoma and in the experiment on NCI-H460 lung was above 100 µM each time. Moreover, the TGI in the experiment on RXF 393 renal, with SK-MEL-28 melanoma, in the experiment with SNB-75 CNS and with UACC-62 melanoma was above 100 µM in each case.

For `CC1=NN(C(=O)c2ccccc2O)C(=O)/C1=C/c1ccc([N+](=O)[O-])cc1`, the GI50 in the experiment on CCRF-CEM leukemia was 0.259 µM; with HCT-116 colon, 0.328 µM; with HCT-15 colon, 0.932 µM; in the experiment on M14 melanoma, 3.01 µM; in the experiment with MALME-3M melanoma, 0.895 µM; in the experiment on NCI-H460 lung, 0.414 µM. In addition, the figures for the GI50 with RXF 393 renal, with SK-MEL-28 melanoma and in the experiment on SNB-75 CNS were 0.263 µM, 4.7 µM and 0.0532 µM, respectively. Besides, the TGI is 40.7 µM in the experiment on M14 melanoma; above 100 µM in the experiment on MALME-3M melanoma; above 100 µM in the experiment on NCI-H460 lung; above 100 µM with SK-MEL-28 melanoma; above 100 µM in the experiment with SNB-75 CNS; 2.16 µM with UACC-62 melanoma.

For `CC/C(Cc1ccccc1)=C(\c1ccc(OCCN2CCCCCC2)cc1)c1ccc(OC(=O)NCc2ccccc2)cc1`, the GI50 is 1.56 µM in the experiment with CCRF-CEM leukemia; 0.895 µM in the experiment on HCT-116 colon; 1.07 µM in the experiment on HCT-15 colon; 1.06 µM in the experiment with M14 melanoma; 0.951 µM in the experiment with MALME-3M melanoma; 0.966 µM with NCI-H460 lung. Moreover, the GI50 in the experiment on RXF 393 renal is 1.31 µM; in the experiment with SK-MEL-28 melanoma it was 1.44 µM; in the experiment with SNB-75 CNS, 6.09 µM; in the experiment on UACC-62 melanoma it was 6.38 µM. Further, the TGI came out at 5.72 µM in the experiment with CCRF-CEM leukemia; 1.63 µM in the experiment with HCT-116 colon; 2.94 µM with HCT-15 colon; 2.55 µM in the experiment on M14 melanoma; 1.94 µM in the experiment with MALME-3M melanoma; 1.83 µM in the experiment on NCI-H460 lung. The TGI amounted to 3.35 µM in the experiment with RXF 393 renal, 5.17 µM in the experiment on SK-MEL-28 melanoma, 13.2 µM in the experiment on SNB-75 CNS and 13 µM with UACC-62 melanoma.

Regarding `O=C(O)CSCc1cccc2ccccc12`, the TGI in the experiment with CCRF-CEM leukemia, with HCT-116 colon, in the experiment on HCT-15 colon, in the experiment with M14 melanoma, in the experiment with MALME-3M melanoma and with NCI-H460 lung was above 100 µM each time. The TGI with RXF 393 renal, in the experiment with SK-MEL-28 melanoma, in the experiment with SNB-75 CNS and with UACC-62 melanoma was above 100 µM in each case.

For `COc1ccc(C#Cc2ccccc2C#CCCCCO)cc1`, the GI50 is 23.5 µM in the experiment on CCRF-CEM leukemia; 22.5 µM in the experiment on HCT-116 colon; 16.3 µM in the experiment on HCT-15 colon; 19.4 µM in the experiment on M14 melanoma; 23 µM with MALME-3M melanoma; 19.4 µM in the experiment with NCI-H460 lung. The GI50 is 16 µM with RXF 393 renal, 12.2 µM with SK-MEL-28 melanoma, 18.4 µM in the experiment on SNB-75 CNS and 15.9 µM in the experiment on UACC-62 melanoma. In addition, the TGI in the experiment with CCRF-CEM leukemia was 53.8 µM; in the experiment on HCT-116 colon, 43.7 µM; in the experiment on HCT-15 colon it was 29.9 µM; with M14 melanoma, 36.2 µM; with MALME-3M melanoma it was 45.4 µM; in the experiment with NCI-H460 lung, 39.9 µM. Also, the TGI in the experiment with RXF 393 renal is 33.6 µM; in the experiment with SK-MEL-28 melanoma, 24.8 µM; with SNB-75 CNS it was 38.9 µM; in the experiment on UACC-62 melanoma, 29.8 µM.

On to `Nc1nc(CCC(=O)Nc2cccc(C(F)(F)F)c2)cc(-c2cccc3ccccc23)n1`, for which the TGI with CCRF-CEM leukemia, with HCT-116 colon, in the experiment on HCT-15 colon, in the experiment on M14 melanoma, with MALME-3M melanoma and in the experiment on NCI-H460 lung was above 100 µM throughout. In addition, the TGI in the experiment on RXF 393 renal, with SK-MEL-28 melanoma, in the experiment on SNB-75 CNS and in the experiment on UACC-62 melanoma was above 100 µM throughout.

Consider `O=C1c2ccccc2C2(O)Nc3cc(O)ccc3C12O` (stereo not given), for which the TGI in the experiment on CCRF-CEM leukemia, in the experiment with HCT-116 colon, with HCT-15 colon, in the experiment on M14 melanoma, in the experiment with MALME-3M melanoma and in the experiment on NCI-H460 lung was above 100 µM throughout. Further, the TGI with RXF 393 renal, in the experiment with SK-MEL-28 melanoma, in the experiment with SNB-75 CNS and in the experiment with UACC-62 melanoma was above 100 µM throughout.

Regarding `COC1=CC(c2ccc[nH]2)=N/C1=C\c1[nH]c(C)c(C(=O)OCc2ccccc2)c1C`, the GI50 is 0.0404 µM with CCRF-CEM leukemia; 0.0321 µM in the experiment on HCT-116 colon; 0.0333 µM in the experiment on HCT-15 colon; 0.0448 µM with M14 melanoma; 0.495 µM with MALME-3M melanoma; 0.0476 µM in the experiment with NCI-H460 lung. Moreover, the GI50 in the experiment on RXF 393 renal is 0.116 µM; in the experiment on SK-MEL-28 melanoma, 0.353 µM; with SNB-75 CNS, 0.127 µM; in the experiment on UACC-62 melanoma it was 0.0579 µM. For the same compound, the TGI in the experiment on CCRF-CEM leukemia was above 28.3 µM; in the experiment on HCT-116 colon, 1.16 µM; in the experiment with HCT-15 colon, 1.09 µM; with M14 melanoma, 0.817 µM; with MALME-3M melanoma it was 2.1 µM; in the experiment on NCI-H460 lung it was 1.2 µM. The TGI in the experiment with RXF 393 renal worked out at 1.41 µM; in the experiment on SK-MEL-28 melanoma, 1.71 µM; in the experiment on SNB-75 CNS, 0.632 µM; in the experiment on UACC-62 melanoma it was 0.193 µM.

In the case of `CC1=CCC[C@@]2(C)C(CC[C@@H]2C(C)/C=C/C(C)C)c2ccc(cc2C(=O)O)C[C@@H](O)CC1` (stereo not given in full), the TGI in the experiment on CCRF-CEM leukemia was 20.8 µM; with HCT-116 colon it was 20.7 µM; with HCT-15 colon, 18.5 µM; in the experiment with M14 melanoma, 34 µM; with MALME-3M melanoma, 37.7 µM; with NCI-H460 lung, 20.1 µM. Besides, the TGI is 30 µM in the experiment on RXF 393 renal, 28.4 µM in the experiment on SK-MEL-28 melanoma, 27.4 µM in the experiment with SNB-75 CNS and 23 µM in the experiment on UACC-62 melanoma.
